Measured values from publication PMC6689975, “Novel Cell Wall Antifungals Reveal a Special Synergistic Activity in pbr1 Mutants Resistant to the Glucan Synthesis Antifungals Papulacandins and Echinocandins” (Frontiers in Microbiology, 2019).
Values after ≈ are worked out from the molar mass of the structure shown. Read-outs that look alike come from different tables or passages of the source.

Legend:
Test in all cases: microbe, parasite or virus in culture
[1] = test system: C. albicans wild-type; design: species or system whole yeast cells; macro tube broth dilution MIC in YEPD at 30 C, visual clearness of medium; conditions: Candida albicans, 48 h, read-out: MIC
Method: (§1) Standard YEPD (Yeast Extract, Peptone, Dextrose) ([Sherman, 1990]), YEPD+S (YEPD with 1.2M sorbitol), YES (Yeast Extract, Dextrose and Supplements of Adenine, Histidine, Leucine, Uracil and Lysine) ([Alfa et al., 1993]) and YES+S (YES with 1.2 M sorbitol) ([Ribas et al., 1991]; [Ishiguro et al., 1997]), media were used for determination of MIC values of the tested compounds. A stock solution of 10 mg/ml of each tested compounds was prepared in DMSO and serial dilutions in DMSO were prepared. The final concentration of DMSO was 2% in the YEPD medium. […] The serial dilutions of compounds were dispensed into test tubes with 1 ml of YEPD or YEPD+S to make final concentrations of 200, 100, 50, 25, 12.5, 6.26, 3.125, 1.6, 0.8 and 0.4 μg/ml. The tested yeast strains were previously grown in YEPD, YEPD+S, YES or YES+S agar plates at 30°C for 48 h. For inoculation of YEPD or YEPD+S macro test tubes a suspension of tested fungus was produced with 10^5 cfu/ml (cfu - colony forming unit). 10 μl of suspension was used for inoculation of each tube. After 48 h incubation at 30°C the tubes were checked. The MIC value is the lowest concentration of the tested compound that could inhibit the fungal growth and the medium remained clear. From each tube 10 μl culture was plated on YEPD agar medium to check the contamination. The MIC tests were carried out in three parallels. The screening of the first generation of isochromanones was carried out in YEPD and YEPD+S media (1E-16E). The fungal strains analyzed are: C. albicans wild-type ATCC 26555, SC5314 and ATCC 90028, S. cerevisiae wild-type CVX12-3A and pbr1-1 mutant, and S. pombe wild-type (972h^–), pbr1-8 mutant and pbr1-6 mutant. The bold numbers in Tables 4–6 indicate the more efficient compounds. […] The weak or moderate efficacy against the C. albicans wild-type strains was observed by some substances (3E, 4Z, 5Z, 10E, 15, and 16E). The efficiency toward the S. pombe pbr1-6 mutant strain was the highest inhibitory activity, except 7E, 11E, 12 and 14E. […] As regards the other S. pombe pbr1-8 mutant strain, the antifungal activity of the tested compounds was slightly lower, but the substances with the best activity are partly identical to the best compounds mentioned with pbr1-6, (i.e., 1E, 3E, 4Z, 5Z).

[2] = test system: T1, S. cerevisiae wild-type CVX12-3A; design: species or system whole yeast cells; macro tube broth dilution MIC in YEPD at 30 C, visual clearness of medium; conditions: Saccharomyces cerevisiae, 48 h, read-out: MIC
T1 construct: CVX12-3A
Method: as §1

[3] = test system: T2, S. pombe wild-type 972 h-; design: species or system whole yeast cells; macro tube broth dilution MIC in YEPD at 30 C, visual clearness of medium; conditions: Schizosaccharomyces pombe, 48 h, read-out: MIC
T2 construct: 972 h-
Method: as §1

[4] = test system: C. albicans wild-type; design: species or system whole yeast cells; macro tube broth dilution MIC in YEPD at 30 C, visual clearness of medium; conditions: Candida albicans, 48 h, read-out: MIC; remark: listed apart in the source
Method: as §1

[5] = test system: C. albicans wild-type; design: species or system whole yeast cells; macro tube broth dilution MIC in YEPD at 30 C, visual clearness of medium; conditions: Candida albicans, 48 h, read-out: MIC; remark: listed apart in the source
Method: as §1

[6] = test system: C. albicans wild-type; design: species or system whole yeast cells; micro-culture broth dilution MIC in YES at 30 C, turbidity, complete growth inhibition; conditions: Candida albicans
Method: (§2) Standard YEPD (Yeast Extract, Peptone, Dextrose) ([Sherman, 1990]), YEPD+S (YEPD with 1.2M sorbitol), YES (Yeast Extract, Dextrose and Supplements of Adenine, Histidine, Leucine, Uracil and Lysine) ([Alfa et al., 1993]) and YES+S (YES with 1.2 M sorbitol) ([Ribas et al., 1991]; [Ishiguro et al., 1997]), media were used for determination of MIC values of the tested compounds. A stock solution of 10 mg/ml of each tested compounds was prepared in DMSO and serial dilutions in DMSO were prepared. The final concentration of DMSO was 2% in the YEPD medium. […] The serial dilutions of compounds were dispensed into test tubes with 1 ml of YEPD or YEPD+S to make final concentrations of 200, 100, 50, 25, 12.5, 6.26, 3.125, 1.6, 0.8 and 0.4 μg/ml. The tested yeast strains were previously grown in YEPD, YEPD+S, YES or YES+S agar plates at 30°C for 48 h. Micro-culture assays of large numbers of samples were analyzed as described) ([Martins et al., 2011]). Essentially early log-phase cells were grown in YEPD, YEPD+S, YES or YES+S (1.2 M sorbitol) medium at 30°C, and diluted to cell density of 4 X 10^6 cells/ml in YEPD, YEPD+S, YES or YES+S medium and aliquots of 100 μl were dispensed into each small test tube (3 ml test tube size). Then, another 100 μl of YEPD, YEPD+S, YES or YES+S with the corresponding dilution of each compound at 2X concentration (4% DMSO) was added. The final volume was 200 μl, with the cells diluted to of 2 X 10^6 cells/ml and each compound diluted to 1X final concentration, containing increasing concentrations of antifungal (0, 1, 2, 5, 10, 20, 50, 100 and 200 μg/ml) or an equivalent volume of solvent (2% DMSO). The cells were grown at 30°C in an orbital roller and turbidity was analyzed after 24 and 48 h of incubation. The MIC was determined as the minimal concentration of tested compound that produced complete cell growth inhibition and kept the medium clear. The MIC values were calculated from at least three independent experiments. Next, the first generation of isochromanones (1E-16E) was also screened in YES medium (Table 5) and exerted a weaker antifungal potency than in YEPD medium and also than the second family of isochromanones in YES medium (17E-30E) (Table 6). The strains are partly different from the previously mentioned ones (Tables 5, 6) analyzing two wild type C. albicans strains because they behaved similarly in YEPD. It is remarkable that there was no effect against either the C. albicans, the S. cerevisiae, or the S. pombe wild-type strains, except with 30E.

[7] = test system: T1, S. cerevisiae wild-type CVX12-3A; design: species or system whole yeast cells; micro-culture broth dilution MIC in YES at 30 C, turbidity, complete growth inhibition; conditions: Saccharomyces cerevisiae
Method: as §2

[8] = test system: T2, S. pombe wild-type 972 h-; design: species or system whole yeast cells; micro-culture broth dilution MIC in YES at 30 C, turbidity, complete growth inhibition; conditions: Schizosaccharomyces pombe
Method: as §2

[9] = test system: Candida albicans C. a.^f (Tables 5, 6); design: species or system yeast; micro tube dilution MIC in YES (± 1.2 M sorbitol), complete growth inhibition by turbidity; conditions: 48 h, YES + 1.2 M sorbitol
Method: as §2, with “experiments.” for “experiments. Next, the first generation of isochromanones (1E-16E) was also screened in YES medium (Table 5) and exerted a weaker antifungal potency than in YEPD medium and also than the second family of isochromanones in YES medium (17E-30E) (Table 6). The strains are partly different from the previously mentioned ones (Tables 5, 6) analyzing two wild type C. albicans strains because they behaved similarly in YEPD. It is remarkable that there was no effect against either the C. albicans, the S. cerevisiae, or the S. pombe wild-type strains, except with 30E.”

[10] = test system: Candida albicans C. a.^g (Table 6); design: species or system yeast; micro tube dilution MIC in YES (± 1.2 M sorbitol), complete growth inhibition by turbidity; conditions: 48 h, YES + 1.2 M sorbitol
Method: as §2, with “experiments.” for “experiments. Next, the first generation of isochromanones (1E-16E) was also screened in YES medium (Table 5) and exerted a weaker antifungal potency than in YEPD medium and also than the second family of isochromanones in YES medium (17E-30E) (Table 6). The strains are partly different from the previously mentioned ones (Tables 5, 6) analyzing two wild type C. albicans strains because they behaved similarly in YEPD. It is remarkable that there was no effect against either the C. albicans, the S. cerevisiae, or the S. pombe wild-type strains, except with 30E.”

[11] = test system: T3, Saccharomyces cerevisiae S. c.^d (wild-type CVX12-3A); design: species or system yeast; micro tube dilution MIC in YES (± 1.2 M sorbitol), complete growth inhibition by turbidity; conditions: 48 h, YES + 1.2 M sorbitol
T3 construct: CVX12-3A
Method: as §2, with “experiments.” for “experiments. Next, the first generation of isochromanones (1E-16E) was also screened in YES medium (Table 5) and exerted a weaker antifungal potency than in YEPD medium and also than the second family of isochromanones in YES medium (17E-30E) (Table 6). The strains are partly different from the previously mentioned ones (Tables 5, 6) analyzing two wild type C. albicans strains because they behaved similarly in YEPD. It is remarkable that there was no effect against either the C. albicans, the S. cerevisiae, or the S. pombe wild-type strains, except with 30E.”

[12] = test system: T4, Schizosaccharomyces pombe S. p.^a (wild-type 972 h-); design: species or system yeast; micro tube dilution MIC in YES (± 1.2 M sorbitol), complete growth inhibition by turbidity; conditions: 48 h, YES + 1.2 M sorbitol
T4 construct: 972 h-
Method: as §2, with “experiments.” for “experiments. Next, the first generation of isochromanones (1E-16E) was also screened in YES medium (Table 5) and exerted a weaker antifungal potency than in YEPD medium and also than the second family of isochromanones in YES medium (17E-30E) (Table 6). The strains are partly different from the previously mentioned ones (Tables 5, 6) analyzing two wild type C. albicans strains because they behaved similarly in YEPD. It is remarkable that there was no effect against either the C. albicans, the S. cerevisiae, or the S. pombe wild-type strains, except with 30E.”

[13] = YES medium, C. albicans strain f
[14] = YES medium, C. albicans strain g

| Structure (SMILES) | MIC [1] [µg/mL] | MIC [2] [µg/mL] | MIC [3] [µg/mL] | MIC [4] [µg/mL] | MIC [5] [µg/mL] | MIC ([6]; read-out: MIC) [µg/mL] | MIC ([7]; read-out: MIC) [µg/mL] | MIC ([8]; read-out: MIC) [µg/mL] | MIC [6, 13] [µg/mL] | MIC [6, 14] [µg/mL] | MIC ([7]; YES medium) [µg/mL] | MIC ([8]; YES medium) [µg/mL] | MIC [9] [µg/mL] | MIC [10] [µg/mL] | MIC [11] [µg/mL] | MIC [12] [µg/mL] |
| --- | --- | --- | --- | --- | --- | --- | --- | --- | --- | --- | --- | --- | --- | --- | --- | --- |
| O=C1OCc2ccccc2/C1=C\c1ccccc1Br [14E] | 200 (≈ 635 µM) | 25 (≈ 79.3 µM) | 50 (≈ 159 µM) | 200 (≈ 635 µM) | > 200 | > 200 | > 200 | > 200 | – | – | – | – | – | – | – | – |
| O=C1OCc2ccccc2/C1=C\c1cccc(O)c1 [16E] | 200 (≈ 793 µM) | 200 (≈ 793 µM) | 100 (≈ 396 µM) | 200 (≈ 793 µM) | 50 (≈ 198 µM) | > 200 | > 200 | > 200 | – | – | – | – | – | – | – | – |
| O=C1OCc2ccccc2/C1=C/c1ccc([N+](=O)[O-])cc1 [17Z] | – | – | – | – | – | – | – | – | > 200 | > 200 | > 200 | > 200 | > 200 | > 200 | > 200 | > 200 |
| Cc1ccc(/C=C2/C(=O)OCc3ccccc32)cc1 [19E] | – | – | – | – | – | – | – | – | > 200 | > 200 | > 200 | > 200 | > 200 | > 200 | > 200 | > 200 |
| COc1ccc(/C=C2/C(=O)OCc3ccccc32)cc1 [21E] | – | – | – | – | – | – | – | – | > 200 | > 200 | > 200 | > 200 | > 200 | > 200 | > 200 | > 200 |
| O=C1OCc2ccccc2/C1=C\c1ccc2c(c1)OCO2 [27E] | – | – | – | – | – | – | – | – | > 200 | > 200 | > 200 | > 200 | > 200 | > 200 | > 200 | > 200 |
